Data on 2 molecules can be found in paper PMC6449294, “SNAPshots of the MCHR1: a Comparison Between the PET-Tracers [^18F]FE@SNAP and [^11C]SNAP-7941” (Molecular Imaging and Biology, 2018).

The target in data set [1] is T1, human serum albumin (HSA) (Homo sapiens, UniProt P02768).
T1 construct: purchased Daicel Chemical Industries CHIRALPAK HSA, column-batch H13L-2405
In words: Plasma protein binding using bioaffinity chromatography (CHIRALPAK HSA). Conditions: human; bioaffinity chromatography on HSA stationary phase; read-out: Plasma protein binding (%PPB) / Binding to human serum albumin (converted). In kind it is in vitro ADME. As to the method:
The binding of (±)-SNAP-7941 and FE@SNAP to human serum albumin (HSA) was examined by bioaffinity chromatography according to a previously published manuscript. In short, the analytes were diluted in 2-propanol and ammonium acetate buffer (0.5 mg/ml) and injected on the CHIRALPAK®HSA stationary phase (50 × 3 mm, 5 μm pore size, column-batch: H13L-2405, Daicel Chemical Industries, West Chester, PA, USA). Prior the experiments, the column was calibrated with reference standards, and the resulting regression equation was used to convert the logarithmic capacity factors (log(k′)) to the percent of plasma protein binding (%PPB). The calibration curves, as well as the experiments, were performed by triplicate injections and at least three times.

Details of data set [2]: method as in earlier work. Conditions: ultrafiltration, human pooled plasma; ref 30 and 34 (table), 32 and 36; cited from earlier work.
The target in another data set is T2, human MCHR1 (Homo sapiens, UniProt Q99705).
T2 construct: host or cells: CHO-K1
In words: Kinetic real-time cell-binding study (LigandTracer) on CHO-K1-hMCHR1 cells. Type of data set: cell-based. Conditions: for observed association rate constant (kobs): CHO-K1-hMCHR1 cells, ambient temperature, radiotracer 0.05–1000 nM, mean ± SEM; for accumulation on CHO-K1-hMCHR1 cells: real-time cell binding, result in words. The protocol:
(§1) Kinetic real-time cell-binding studies were performed on adherent Chinese hamster ovary (CHO-K1) cells (negative control) and CHO-K1 cells stably expressing the human MCHR1 or MCHR2 (PerkinElmer®; Waltham, MA, USA) with [^11C]SNAP-7941 and [^18F]FE@SNAP as previously reported. The cells were cultured in Ham’s F-12 medium (Gibco®, Life Technologies) with additives (1 % penicillin-streptomycin-glutamine (PSG), 10 % fetal bovine serum (FBS), and 300-μg/m Geneticin (G-418)) and incubated in a humidified 5 % CO2 atmosphere at 37 °C. For the preparation of the binding experiment, approximately 10^6 cells were seeded as a monolayer on the bottom of a tilted cell culture dish (100 mm × 20 mm, CELLSTAR®, Greiner Bio-One) and incubated with 2-ml medium for 24 h to avoid a spreading of the cells over the whole Petri dish. In the next step, the medium was discarded and the Petri dish was placed in a horizontal position with 10-ml medium for additional 24 h. Afterwards, the binding experiment was performed at ambient temperature with LigandTracer® Yellow (Ridgeview Instruments AB, Uppsala, Sweden) using 3-ml fresh medium (Ham’s F-12, serum-free). Unspecific radiotracer uptake was determined with native CHO-K1 cells. The experiments were initiated with baseline measurements for 10–15 min followed by radioligand incubation of [^11C]SNAP-7941 and [^18F]FE@SNAP. Binding to the seeded cells was ensured by adding different concentrations of the radiotracer (0.05–1000 nM). Association-time curves were monitored in real-time until the binding equilibrium was achieved. The observed rate constant of the association reaction (kobs) was determined using non-linear regression curve fitting algorithms implemented in GraphPad Prism 6.0 (GraphPad Software, Inc., San Diego, CA, USA), as previously reported. Cell survival was continuously examined using the perimeter trace (signal vs. dish position) of the LigandTracer® 1.0.1 software (Ridgeview Instruments AB, Uppsala, Sweden).

Another data set has as its system native CHO-K1 cells. In words: Kinetic real-time cell-binding study on native CHO-K1 cells (negative control, unspecific uptake). In kind it is cell-based, Chinese hamster. Conditions: result in words. As to the method:
as §1, with “Afterwards, the binding experiment was performed at ambient temperature with LigandTracer® Yellow (Ridgeview Instruments AB, Uppsala, Sweden) using 3-ml fresh medium (Ham’s F-12, serum-free).” left out, “The experiments were initiated with baseline measurements for 10–15 min followed by radioligand incubation of [^11C]SNAP-7941 and [^18F]FE@SNAP. Binding to the seeded cells was ensured by adding different concentrations of the radiotracer (0.05–1000 nM).” left out, “Cell survival was continuously examined using the perimeter trace (signal vs. dish position) of the LigandTracer® 1.0.1 software (Ridgeview Instruments AB, Uppsala, Sweden).” left out

For the next data set, the target named is T3, human MCHR2 (Homo sapiens, UniProt Q969V1).
T3 construct: host or cells: CHO-K1
In words: Kinetic real-time cell-binding study (LigandTracer) on CHO-K1-hMCHR2 cells. In kind it is cell-based. Conditions: for Selectivity over MCHR2: CHO-K1-hMCHR1 vs CHO-K1-hMCHR2 living cells, Yes/No; for accumulation on CHO-K1-hMCHR2 cells: real-time cell binding, result in words. The protocol: as §1

T3 sequence (Q969V1 whole entry): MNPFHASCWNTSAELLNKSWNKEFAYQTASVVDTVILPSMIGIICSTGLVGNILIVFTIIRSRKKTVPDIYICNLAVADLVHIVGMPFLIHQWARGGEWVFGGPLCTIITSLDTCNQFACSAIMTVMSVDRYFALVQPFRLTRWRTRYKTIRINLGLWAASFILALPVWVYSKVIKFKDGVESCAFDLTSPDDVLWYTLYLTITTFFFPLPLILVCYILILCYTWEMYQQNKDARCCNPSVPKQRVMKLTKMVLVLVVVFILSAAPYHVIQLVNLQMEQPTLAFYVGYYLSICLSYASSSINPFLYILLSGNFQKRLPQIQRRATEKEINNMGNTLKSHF
T2 sequence (Q99705 whole entry): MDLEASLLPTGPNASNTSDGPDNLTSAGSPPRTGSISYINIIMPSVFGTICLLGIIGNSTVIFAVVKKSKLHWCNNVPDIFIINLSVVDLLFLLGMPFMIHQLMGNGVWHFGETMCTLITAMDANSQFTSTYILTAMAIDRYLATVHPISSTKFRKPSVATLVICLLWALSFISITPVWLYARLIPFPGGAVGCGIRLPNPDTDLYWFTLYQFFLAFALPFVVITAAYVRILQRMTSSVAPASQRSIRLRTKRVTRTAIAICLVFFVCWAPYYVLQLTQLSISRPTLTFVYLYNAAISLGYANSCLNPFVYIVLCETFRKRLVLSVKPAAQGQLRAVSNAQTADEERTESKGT
T1 sequence (P02768 25-609): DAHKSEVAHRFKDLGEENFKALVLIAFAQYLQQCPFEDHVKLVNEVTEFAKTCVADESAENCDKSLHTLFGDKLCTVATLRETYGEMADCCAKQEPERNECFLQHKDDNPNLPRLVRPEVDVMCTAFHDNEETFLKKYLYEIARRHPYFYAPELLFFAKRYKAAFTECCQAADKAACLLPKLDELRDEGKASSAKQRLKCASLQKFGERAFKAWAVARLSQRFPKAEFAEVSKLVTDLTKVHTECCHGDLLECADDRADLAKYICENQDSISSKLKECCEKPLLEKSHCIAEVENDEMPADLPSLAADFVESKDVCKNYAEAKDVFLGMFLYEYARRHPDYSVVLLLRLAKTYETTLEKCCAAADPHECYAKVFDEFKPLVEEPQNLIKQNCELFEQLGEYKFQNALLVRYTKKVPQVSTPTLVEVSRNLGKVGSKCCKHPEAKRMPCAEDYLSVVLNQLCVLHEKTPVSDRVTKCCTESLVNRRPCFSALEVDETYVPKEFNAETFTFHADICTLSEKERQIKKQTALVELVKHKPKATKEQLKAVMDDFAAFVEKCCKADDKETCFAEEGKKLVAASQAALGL

Turning to `COCC1=C(C(=O)O[11CH3])C(c2ccc(F)c(F)c2)N(C(=O)NCCCN2CCC(c3cccc(NC(C)=O)c3)CC2)C(=O)N1` (stereo not drawn) [[^11C]SNAP-7941], in data set [1], the fraction unbound at 0.5 mg/ml was 0.2. Moreover, the “Plasma free fraction (human)” value in data set [2] is given as 20.96 ± 1%. For the same molecule, at human MCHR1, the “observed association rate constant (kobs)” value is 0.0629 ± 0.0020 min⁻¹ and the “accumulation on CHO-K1-hMCHR1 cells” value is listed as “high accumulation”. The “accumulation on native CHO-K1 cells” value in the data set with native CHO-K1 cells is “negligible accumulation”. In addition, at human MCHR2, the “Selectivity over MCHR2” value was “Yes” and the “accumulation on CHO-K1-hMCHR2 cells” value was “negligible accumulation”.

In the case of `COCC1=C(C(=O)OCC[18F])C(c2ccc(F)c(F)c2)N(C(=O)NCCCN2CCC(c3cccc(NC(C)=O)c3)CC2)C(=O)N1` (stereo not drawn) [[^18F]FE@SNAP], in data set [1], the fraction unbound at 0.5 mg/ml was 0.23. Moreover, in data set [2], the “Plasma free fraction (human)” value is recorded as 12.6 ± 0.2%. In addition, at human MCHR1, the “observed association rate constant (kobs)” value stood at 0.0859 ± 0.0028 min⁻¹ and the “accumulation on CHO-K1-hMCHR1 cells” value is “high accumulation”. In the data set with native CHO-K1 cells, the “accumulation on native CHO-K1 cells” value is “negligible accumulation”. Also, on human MCHR2, the “Selectivity over MCHR2” value is “No” and the “accumulation on CHO-K1-hMCHR2 cells” value is reported as “exhibited accumulation”. Further, on human MCHR2 (CHO-K1-hMCHR2 cells, ambient temperature, radiotracer 0.05–1000 nM, mean ± SEM), the “observed association rate constant (kobs)” value amounted to 0.0918 ± 0.0031 min⁻¹.
